This note sets out measurements from PubChem BioAssay AID1963447 (Molecular Pharmacology Branch, DTP, NCI, 2024).

pIC50: −log10 of the molar value. Several values for one entry are separate records, joined by “and”; a condition that tells them apart may be missing. Equal values may be shown once.

For the experiment, the system named is 885512-296-R-J2-PDC complex spheroid growth, % test/control. The experiment can be described thus: Anticancer human tumor 885512-296-R-J2-PDC patient-derived breast carcinoma cell line growth inhibition [Asc]. The following applies: for viability, T/C: stronger effect = lower value. In a few lines:
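Stromal components (HUVEC and hMSC) are co-assembled with the cancer cells into multicellular spheroids. Drugs are then added singly or paired, at concentrations falling by half-log increments from a clinically achievable maximum, capped at 10 microM without known Cmax.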
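Further: spheroids exposed to compounds for seven days.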
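Wherever viability, T/C is given: 100% = DMSO vehicle control wells.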

In general, pIC50 refers to −log10 of the IC50, conventionally taken in molar units. One may read the viability, T/C as the result in the treated group divided by that in the control group, in per cent. `CNC(C)C(=O)NC1CN(S(=O)(=O)c2cccc(S(=O)(=O)N3CCC4CCC(C(=O)NC(c5ccccc5)c5ccccc5)N4C(=O)C(NC(=O)C(C)NC)C3)c2)CCC2CCC(C(=O)NC(c3ccccc3)c3ccccc3)N2C1=O` (configuration not stated) + Cc1c(S(C)(=O)=O)c(-c2cc(F)cc(N3CCN(c4ccc(NS(=O)(=O)c5ccc(NC(CCN6CCC(C(=O)OCCCP(=O)(O)O)CC6)CSc6ccccc6)c(S(=O)(=O)C(F)(F)F)c5)cc4)CC3)c2)c(-c2ccc(Cl)cc2)n1C(C)C: the pIC50 (curve of first compound, second compound 0.1 µM) is below 6.00; the pIC50 (curve of first compound, second compound 0.316 µM) was below 6.00; the pIC50 (curve of first compound, second compound 1 µM) is below 6.00; the pIC50 (curve of first compound, second compound 3.16 µM) is below 6.00; the pIC50 (curve of first compound, second compound 10 µM) is below 6.00. The viability, T/C is 78.5% (second compound 0.1 µM, first compound 0.00316 µM); 89.6% (second compound 0.1 µM, first compound 0.01 µM); 89.2% (second compound 0.1 µM, first compound 0.0316 µM); 101% (second compound 0.1 µM, first compound 0.1 µM); 116% (second compound 0.1 µM, first compound 0.316 µM); 88.8% (second compound 0.1 µM, first compound 1 µM). For the same compound, the viability, T/C by setting is: (second compound 0.316 µM, first compound 0.00316 µM) 80.1%; (second compound 0.316 µM, first compound 0.01 µM) 92.6%; (second compound 0.316 µM, first compound 0.0316 µM) 107%; (second compound 0.316 µM, first compound 0.1 µM) 93.5%; (second compound 0.316 µM, first compound 0.316 µM) 106%; (second compound 0.316 µM, first compound 1 µM) 109%. The viability, T/C was 90% (second compound 1 µM, first compound 0.00316 µM); 100% (second compound 1 µM, first compound 0.01 µM); 112% (second compound 1 µM, first compound 0.0316 µM); 102% (second compound 1 µM, first compound 0.1 µM); 107% (second compound 1 µM, first compound 0.316 µM); 109% (second compound 1 µM, first compound 1 µM). The viability, T/C reads like this: (second compound 3.16 µM, first compound 0.00316 µM) 94.7%; (second compound 3.16 µM, first compound 0.01 µM) 92.7%; (second compound 3.16 µM, first compound 0.0316 µM) 99.2%; (second compound 3.16 µM, first compound 0.1 µM) 102%; (second compound 3.16 µM, first compound 0.316 µM) 112%; (second compound 3.16 µM, first compound 1 µM) 95.2%. For the same compound, the viability, T/C is 112% (second compound 10 µM, first compound 0.00316 µM); 103% (second compound 10 µM, first compound 0.01 µM); 91.5% (second compound 10 µM, first compound 0.0316 µM); 98% (second compound 10 µM, first compound 0.1 µM); 100% (second compound 10 µM, first compound 0.316 µM); 105% (second compound 10 µM, first compound 1 µM).
For the compound `C#Cc1c(F)ccc2cc(O)cc(-c3ncc4c(N5CC6CCC(C5)N6)nc(OCC56CCCN5CC(F)C6)nc4c3F)c12` (configuration not stated), the viability, T/C (compound 0.0316 µM) is 93.6% and 96.8% and 95.3%; the viability, T/C (compound 0.1 µM) is 103% (2×) and 91.5%; the viability, T/C (compound 0.316 µM) is 89.2% and 72.3% and 99.9%; the viability, T/C (compound 1 µM) is 99.7% and 72.6% and 93.5%; the viability, T/C (compound 3.16 µM) was 101% and 93.8% and 87.5%; the viability, T/C (compound 10 µM) is 97.2% and 80.2% and 71.9%. The pIC50 (curve of compound) was below 5.00.
